Data set [1] deals with apical uptake transporter (AT). Particulars: MDCK-MDR1-NKI; fitted.
The next data set in a line: in vitro. Particulars: dog.
The target of data set [2] is T1, P-gp (Homo sapiens, UniProt P08183). The settings on record: MDCK-MDR1-NKI; fitted consensus value.
Details of data set [3]: method as in earlier work. The settings on record: ref 18 19 20, cited from earlier work.
Data set [4] relates to basolateral digoxin uptake transporter. Particulars: Caco-2; 10 µM digoxin B>A, 1 hr; Trel = 0.2.
Data set [5] shares this test system. The settings on record: MDCK-MDR1-NIH; 10 µM digoxin B>A, 1 hr; Trel = 0.6; listed as KCZ.
Data set [6] has the same test system. Particulars: CPT-B2; 10 µM digoxin B>A, 1 hr; Trel = 0.3.
Data set [7] addresses T1, P-gp. The data set can be described thus: cell-based.
The conditions of data set [8]: mol drug per L lipid / mol drug per L aqueous buffer; 10 µM drug; 37°C.
Data set [9] deals with MDCK-MDR1-NKI confluent cell monolayers. Particulars: nicardipine up to 100 µM; data not shown.
Where [10] appears, read: MDCK-MDR1, with GF120918 2 µM, both chambers, Passive Permeability Coefficient at steady-state PAB, A>B, +GF120918.
The mark [11] stands for this setting: MDCK-MDR1, with GF120918 2 µM, both chambers, Passive Permeability Coefficient at steady-state PBA, B>A, +GF120918.
The mark [12] stands for this setting: MDCK-MDR1, with GF120918 2 µM, both chambers, passive permeability, direction not given.

Read-outs that look alike come from different tables or passages of the source.

T1 sequence (P08183 whole entry): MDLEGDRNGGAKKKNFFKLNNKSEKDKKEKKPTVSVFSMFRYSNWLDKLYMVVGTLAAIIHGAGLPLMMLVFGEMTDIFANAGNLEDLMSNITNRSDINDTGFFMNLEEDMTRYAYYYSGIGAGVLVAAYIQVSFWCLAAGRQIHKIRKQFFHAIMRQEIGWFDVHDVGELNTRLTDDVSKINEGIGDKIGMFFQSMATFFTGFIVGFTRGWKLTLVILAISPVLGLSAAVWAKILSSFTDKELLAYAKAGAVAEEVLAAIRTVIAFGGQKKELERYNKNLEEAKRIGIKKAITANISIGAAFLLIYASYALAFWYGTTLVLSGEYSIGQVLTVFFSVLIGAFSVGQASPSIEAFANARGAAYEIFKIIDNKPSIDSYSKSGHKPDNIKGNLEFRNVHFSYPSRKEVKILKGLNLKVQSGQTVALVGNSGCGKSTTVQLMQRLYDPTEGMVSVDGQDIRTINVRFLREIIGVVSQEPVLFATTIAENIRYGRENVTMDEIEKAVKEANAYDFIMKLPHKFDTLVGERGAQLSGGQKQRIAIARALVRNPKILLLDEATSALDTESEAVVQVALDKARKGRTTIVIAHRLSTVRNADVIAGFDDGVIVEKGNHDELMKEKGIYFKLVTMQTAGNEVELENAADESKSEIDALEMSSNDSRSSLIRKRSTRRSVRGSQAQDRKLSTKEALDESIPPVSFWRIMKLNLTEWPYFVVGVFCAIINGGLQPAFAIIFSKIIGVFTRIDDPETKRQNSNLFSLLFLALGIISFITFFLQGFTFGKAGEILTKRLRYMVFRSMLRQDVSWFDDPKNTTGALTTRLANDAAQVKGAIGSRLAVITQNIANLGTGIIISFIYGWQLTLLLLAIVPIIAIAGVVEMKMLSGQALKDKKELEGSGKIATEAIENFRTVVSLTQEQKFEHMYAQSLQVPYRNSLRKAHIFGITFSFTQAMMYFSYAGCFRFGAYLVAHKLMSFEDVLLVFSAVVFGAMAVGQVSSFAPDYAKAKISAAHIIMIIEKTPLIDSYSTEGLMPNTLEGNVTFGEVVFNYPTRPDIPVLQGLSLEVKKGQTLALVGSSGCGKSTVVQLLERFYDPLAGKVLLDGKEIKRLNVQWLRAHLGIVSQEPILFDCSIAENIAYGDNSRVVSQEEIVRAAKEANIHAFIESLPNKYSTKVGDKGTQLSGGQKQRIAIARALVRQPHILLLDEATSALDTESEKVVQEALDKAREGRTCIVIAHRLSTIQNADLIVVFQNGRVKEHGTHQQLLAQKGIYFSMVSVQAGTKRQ

On to `CC(C)CN(C[C@@H](O)[C@H](Cc1ccccc1)NC(=O)O[C@H]1CCOC1)S(=O)(=O)c1ccc(N)cc1` [Amprenavir], for which, in data set [1], the “Other Transporters kA, 1st order clearance through apical uptake transporter” value (“Other Transporters kA” for short) is 350±30 0 s^−1.

For the compound `C[C@H]1O[C@@H](O[C@H]2[C@@H](O)C[C@H](O[C@H]3[C@@H](O)C[C@H](O[C@H]4CC[C@@]5(C)[C@H](CC[C@@H]6[C@@H]5C[C@@H](O)[C@]5(C)[C@@H](C7=CC(=O)OC7)CC[C@]65O)C4)O[C@@H]3C)O[C@@H]2C)C[C@H](O)[C@@H]1O` [Digoxin], the Papp (in general, a coefficient for how fast a substance crosses the barrier) is 4 ± 1 ×10⁻⁶ cm/s in “in vitro” (setting [10]), 5 ± 1 ×10⁻⁶ cm/s in “in vitro” (setting [11]) and below 10 ×10⁻⁶ cm/s in the data set “in vitro” (setting [12]). Besides, the “Other Transporters kA” value in [1] was 40 ± 20 s⁻¹. Moreover, the “Dissociation from P-gp into Apical Bilayer kr” value at P-gp [2] is “(3±1)×10^+4 s^−1”. Besides, the “Efflux from P-gp into Apical Chamber k2” value at P-gp [2] turned out to be 3 ± 1 s⁻¹. Further, the “aggregating compound or not” value in data set [3] (enzyme inhibition studies) was “not to be aggregating compounds”.

As to `CC(=O)N1CCN(c2ccc(OCC3COC(Cn4ccnc4)(c4ccc(Cl)cc4Cl)O3)cc2)CC1` (stereo not drawn) [Ketoconazole], the “Other Transporters kA” value in [1] is reported as 730±70 0 s^−1. Also, the “KQB, effective association constant of inhibitor to basolateral digoxin uptake transporter” value in [4] is given as “(2±1)×10^6 M^−1”; in [5], “(4±2)×10^5 M^−1”; in [6], “(4±2)×10^6 M^−1”. In data set [3] (enzyme inhibition studies), the “aggregating compound or not” value is on record as “not to be aggregating compounds”.

In turn, `CN(C)C(=O)C(CCN1CCC(O)(c2ccc(Cl)cc2)CC1)(c1ccccc1)c1ccccc1` [Loperamide] showed a Papp in the data set “in vitro” (MDCK-MDR1, Passive Permeability Coefficient at steady-state PAB, A>B, +GF120918) of 32 ± 7 ×10⁻⁶ cm/s. This compound also came in with a Papp in “in vitro” (MDCK-MDR1, Passive Permeability Coefficient at steady-state PBA, B>A, +GF120918) of 32 ± 9 ×10⁻⁶ cm/s. In the data set “in vitro” (MDCK-MDR1, passive permeability, direction not given), the apparent permeability coefficient (Papp) is around 32 ×10⁻⁶ cm/s. Besides, binding at P-gp [7] was put at a Kd of 200 µM. Moreover, in data set [8], the “Molar partition coefficient, Apical Outer Leaflet PC/SM/Chol (1∶1∶1) (mols), KAO” value was found to be 300±50; the “Molar partition coefficient, Basolateral Outer Leaflet PC/Chol (2∶1) (mols), KBO” value is on record as 450±50; the “Molar partition coefficient, Plasma Cytosolic Leaflet PE/PS/Chol (1∶1∶1) (mols), KPC” value is reported as 1500±250. At P-gp [2], the “Dissociation from P-gp into Apical Bilayer kr” value is “(2±1)×10^+4 s^−1” and the “Efflux from P-gp into Apical Chamber k2” value was 0.4 ± 0.08 s⁻¹.

With `C=C[C@H]1C[N@@]2CC[C@H]1C[C@@H]2[C@@H](O)c1ccnc2ccc(OC)cc12` [Quinidine], the Papp in “in vitro” (setting [10]) and in “in vitro” (setting [11]) was 67 ± 5 ×10⁻⁶ cm/s each time. The “Dissociation from P-gp into Apical Bilayer kr” value at P-gp [2] was “(4±2)×10^+3 s^−1”. Further, at P-gp [2], the “Efflux from P-gp into Apical Chamber k2” value is 3 ± 0.4 s⁻¹.

With `CC[C@]1(O)C[C@@H]2CN(CCc3c([nH]c4ccccc34)[C@@](C(=O)OC)(c3cc4c(cc3OC)N(C)[C@H]3[C@@](O)(C(=O)OC)[C@H](OC(C)=O)[C@]5(CC)C=CCN6CC[C@]43[C@@H]65)C2)C1` [Vinblastine], the Papp in “in vitro” (setting [10]) came out at 5.5 ± 2 ×10⁻⁶ cm/s. This compound also returned a Papp in the data set “in vitro” (setting [11]) of 9 ± 1 ×10⁻⁶ cm/s. In the data set “in vitro” (setting [12]), this compound gave a Papp below 10 ×10⁻⁶ cm/s. For the same compound, the “Other Transporters kA” value in [1] stood at 0 s⁻¹. In data set [8], the “Molar partition coefficient, Apical Outer Leaflet PC/SM/Chol (1∶1∶1) (mols), KAO” value stood at 200±3; the “Molar partition coefficient, Basolateral Outer Leaflet PC/Chol (2∶1) (mols), KBO” value turned out to be 200±20; the “Molar partition coefficient, Plasma Cytosolic Leaflet PE/PS/Chol (1∶1∶1) (mols), KPC” value is recorded as 200±50. On P-gp [2], the “Dissociation from P-gp into Apical Bilayer kr” value is recorded as “(5±2.5)×10^+4 s^−1” and the “Efflux from P-gp into Apical Chamber k2” value amounted to 3 ± 0.5 s⁻¹.

In the case of `COC(=O)C1=C(C)NC(C)=C(C(=O)OCCN(C)Cc2ccccc2)C1c1cccc([N+](=O)[O-])c1` (stereo not drawn) [nicardipine], in data set [9], the “PC plateau (large inhibitor concentration plateau) of digoxin transport inhibition” value was “significantly above zero” and the “shape of inhibition curve of digoxin transport” value is given as “sigmoidal”. In data set [3] (enzyme inhibition studies), the “concentration above which large aggregates are made” value is recorded as 30–40 µm. Moreover, the “concentration at which colloidal aggregates form” value in [3] is recorded as “about 30 µM”.

The values above are taken from paper PMC3745465 (PLoS ONE, 2013).
